# Measured values: PubChem BioAssay (NCI)
#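 All cell lines were grown in 96-well plates and treated with compound for 48 hours. At the GI50, growth is halved. TGI marks complete inhibition of growth.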
# How the values were obtained:
# Test in all cases: DTP human tumour cell line panel, 48 h
# CCRF-CEM leukemia = tested on: CCRF-CEM leukemia
# IGROV1 ovarian = tested on: IGROV1 ovarian
# NCI-H226 lung = tested on: NCI-H226 lung
# RPMI-8226 leukemia = tested on: RPMI-8226 leukemia
# MDA-MB-231 breast = tested on: MDA-MB-231 breast
# U251 CNS = tested on: U251 CNS
# OVCAR-3 ovarian = tested on: OVCAR-3 ovarian
# MOLT-4 leukemia = tested on: MOLT-4 leukemia
# SW-620 colon = tested on: SW-620 colon
# A549 NSCLC = tested on: A549 NSCLC
# SR leukemia = tested on: SR leukemia
# SK-MEL-28 melanoma = tested on: SK-MEL-28 melanoma
# SNB-19 CNS = tested on: SNB-19 CNS
# CAKI-1 renal = tested on: CAKI-1 renal
# SF-268 CNS = tested on: SF-268 CNS
# OVCAR-5 ovarian = tested on: OVCAR-5 ovarian
# UACC-257 melanoma = tested on: UACC-257 melanoma
# DU-145 prostate = tested on: DU-145 prostate
# NCI-H23 lung = tested on: NCI-H23 lung
# TK-10 renal = tested on: TK-10 renal
# A498 renal = tested on: A498 renal
# KM12 colon = tested on: KM12 colon
# T-47D breast = tested on: T-47D breast
# HOP-92 NSCLC = tested on: HOP-92 NSCLC
# HOP-62 NSCLC = tested on: HOP-62 NSCLC
# MDA-MB-435 = tested on: MDA-MB-435
# PC-3 prostate = tested on: PC-3 prostate
# SK-MEL-2 melanoma = tested on: SK-MEL-2 melanoma
# NCI/ADR-RES ovarian = tested on: NCI/ADR-RES ovarian
# NCI-H460 lung = tested on: NCI-H460 lung
# HCT-15 colon = tested on: HCT-15 colon
# OVCAR-8 ovarian = tested on: OVCAR-8 ovarian
# SF-295 CNS = tested on: SF-295 CNS
# SN12C renal = tested on: SN12C renal
# HS 578T breast = tested on: HS 578T breast
# SNB-75 CNS = tested on: SNB-75 CNS
# SK-OV-3 ovarian = tested on: SK-OV-3 ovarian
# OVCAR-4 ovarian = tested on: OVCAR-4 ovarian
smiles,measurement,setting,value
CC(C)=CCC/C(C)=C/CC/C(C)=C/CC/C(C)=C/CSC[C@H](NC(=O)CCCCCN1CCN(C)CC1)C(=O)NC1CCCCC1,GI50,CCRF-CEM leukemia,2.51 µM
same,TGI,CCRF-CEM leukemia,7.67 µM
same,GI50,IGROV1 ovarian,2.91 µM
same,TGI,IGROV1 ovarian,7.76 µM
same,GI50,NCI-H226 lung,24 µM
same,TGI,NCI-H226 lung,98.2 µM
same,GI50,RPMI-8226 leukemia,2.14 µM
same,TGI,RPMI-8226 leukemia,5.13 µM
same,GI50,MDA-MB-231 breast,2 µM
same,TGI,MDA-MB-231 breast,3.84 µM
same,GI50,U251 CNS,1.81 µM
same,TGI,U251 CNS,3.52 µM
same,GI50,OVCAR-3 ovarian,2.66 µM
same,TGI,OVCAR-3 ovarian,6.49 µM
same,GI50,MOLT-4 leukemia,3.17 µM
same,TGI,MOLT-4 leukemia,8.44 µM
same,GI50,SW-620 colon,1.91 µM
same,TGI,SW-620 colon,3.81 µM
same,GI50,A549 NSCLC,3.36 µM
same,TGI,A549 NSCLC,14 µM
same,GI50,SR leukemia,2.44 µM
same,TGI,SR leukemia,6.27 µM
same,GI50,SK-MEL-28 melanoma,1.79 µM
same,TGI,SK-MEL-28 melanoma,3.43 µM
same,GI50,SNB-19 CNS,2.27 µM
same,TGI,SNB-19 CNS,5.71 µM
same,GI50,CAKI-1 renal,3.08 µM
same,TGI,CAKI-1 renal,11 µM
same,GI50,SF-268 CNS,4.05 µM
same,TGI,SF-268 CNS,17.5 µM
same,GI50,OVCAR-5 ovarian,2.05 µM
same,TGI,OVCAR-5 ovarian,5.25 µM
same,GI50,UACC-257 melanoma,2.09 µM
same,TGI,UACC-257 melanoma,4.93 µM
same,GI50,DU-145 prostate,2.08 µM
same,TGI,DU-145 prostate,4.07 µM
same,GI50,NCI-H23 lung,4.73 µM
same,TGI,NCI-H23 lung,23.4 µM
same,GI50,TK-10 renal,11.7 µM
same,TGI,TK-10 renal,30.5 µM
same,GI50,A498 renal,14.4 µM
same,TGI,A498 renal,34.2 µM
same,GI50,KM12 colon,2.03 µM
same,TGI,KM12 colon,4.01 µM
same,GI50,T-47D breast,2.31 µM
same,TGI,T-47D breast,7.02 µM
same,GI50,HOP-92 NSCLC,2.13 µM
same,TGI,HOP-92 NSCLC,11.3 µM
same,GI50,HOP-62 NSCLC,8.63 µM
same,TGI,HOP-62 NSCLC,32.2 µM
same,GI50,MDA-MB-435,1.66 µM
same,TGI,MDA-MB-435,3.07 µM
same,GI50,PC-3 prostate,1.76 µM
same,TGI,PC-3 prostate,3.49 µM
same,GI50,SK-MEL-2 melanoma,4.11 µM
same,TGI,SK-MEL-2 melanoma,14.5 µM
same,GI50,NCI/ADR-RES ovarian,8.98 µM
same,TGI,NCI/ADR-RES ovarian,33.8 µM
same,GI50,NCI-H460 lung,1.94 µM
same,TGI,NCI-H460 lung,3.73 µM
same,GI50,HCT-15 colon,1.78 µM
same,TGI,HCT-15 colon,3.47 µM
same,GI50,OVCAR-8 ovarian,3.4 µM
same,TGI,OVCAR-8 ovarian,14.3 µM
same,GI50,SF-295 CNS,1.74 µM
same,TGI,SF-295 CNS,3.51 µM
same,GI50,SN12C renal,2.36 µM
same,TGI,SN12C renal,6.19 µM
same,GI50,HS 578T breast,3.54 µM
same,TGI,HS 578T breast,17.4 µM
same,GI50,SNB-75 CNS,4.16 µM
same,TGI,SNB-75 CNS,21 µM
same,GI50,SK-OV-3 ovarian,13 µM
same,TGI,SK-OV-3 ovarian,32.5 µM
same,GI50,OVCAR-4 ovarian,3.51 µM
same,TGI,OVCAR-4 ovarian,15.5 µM
